Data from US10314307B2, “(S)-abscisic acid derivatives for improving plant stress tolerance” (Valent BioSciences Corporation, priority 2015, dated 2019).

Columns and labels:
Type in all cases: in vivo
[1] = system: Cucumber plants cv. ‘Straight Eight’; assay: Cucumber seedling chilling; design: key to New Growth Rating: 0 = No new growth; 1 = some new growth; 2 = new leaves; conditions: for New Growth Rating / Percent Leaf Area Affected: foliar spray 100 mg/liter, 300 ug/plant, 96 hours at 4° C., rated after 48 hours recovery
Description: In these studies, 3′-methyl-(S)-abscisic acid was compared with (S)-abscisic acid on cucumber seedlings for prevention of chilling damage. Cucumber plants cv. ‘Straight Eight’ were grown for two weeks at 25° C. and were size matched into groups of three plants. Each group was sprayed with water+0.05% non-ionic surfactant (control), 100 ppm 3′-methyl-(S)-abscisic acid and surfactant, or 100 ppm S-ABA and surfactant until wet, respectively. For the spray solutions, 3′-methyl-(S)-abscisic acid was dissolved in 0.5% by volume DMSO in water. Following the foliar treatment, plants were held for 48 hours at room temperature, then subjected to 4° C. for 96 hours, and then returned to 25° C. After the plants had been allowed to recover from the chilling treatments for 48 hours, the plants were rated for percent leaf area affected and new growth.

[2] = system: Tobacco plants cv. Xanthi-nc; assay: Tobacco plants drought assay; conditions: for Percent of plants recovered 3 days after re-watering: re-watered after 18 days of water withdrawal
Description: Tobacco plants cv. Xanthi-nc were grown for six weeks at 25° C. and were size matched into groups of four. Each plant group was drench-treated with 10 mL of water containing 0.5% DMSO (control), 0.3 mg, 1.0 mg or 3.0 mg/plant 3′-methyl-(S)-abscisic acid, or 0.3 mg, 1.0 mg or 3.0 mg/plant S-ABA, respectively. The plants were kept in the greenhouse and not watered, simulating drought conditions. After 18 days of water withdrawal, the plants in all treatment groups wilted. At that point, all the plants were watered again. The number of plants that wilted during each day of water withdrawal and the number of plants that recovered following the re-watering were recorded.

[3] = system: corn plants, 111 day, central corn belt variety; assay: Corn plant chilling (growth rate); conditions: for Maintenance of growth under cold (10° C.) conditions: S-ABA even at 1000 mg/l (113.7 g/acre); for Growth Rate, Greenhouse 7-9 d post spray: after chilling; for Growth Rate, Growth Chamber 10° C. 2-7 d post spray: during chilling at 10° C.; for Leaf area: in one of two studies, not repeatable across studies, 3′-methyl-(S)-abscisic acid at 30, 100 and 300 mg/liter; for Growth during stress recovery following cold: 3′-propargyl-(S)-ABA particularly between 11.4 and 113.7 g/acre, S-ABA at rates up to 1000 mg/liter (113.7 g/acre)
Description: Corn seeds of a 111 day, central corn belt variety were planted in 2-quart pots filled with medium. After the corn grew for 10 days in the greenhouse at 24±3° C. (V2 to V3 growth stage), the plants received a foliar spray application of aqueous solutions of the test compounds containing 0.25% non-ionic surfactant with a volume equivalent to 30 gallons/acre. After spraying, plants were moved back to the greenhouse for 2 days, then moved to a growth chamber kept at 10° C. with a 16:8 light:dark cycle (cold treatment). After 5 days in the cold, plants were returned to the greenhouse for 2 days before being harvested destructively. Results of the studies comparing the growth rate of plants treated with S-ABA with 3′-methyl-(S)-ABA during the experiment are shown in Table 3. In additional studies, the effect of S-ABA and 3′-propargyl-(S)-ABA on corn growth rate in chilling studies was compared.

crop plants = assay: Mitigation of drought and chilling stress on crop plants (summary statement)
[4] = Table 3 study, foliar spray 30 mg/l (3.4 g/acre)
[5] = Table 3 study, foliar spray 100 mg/l (11.4 g/acre)
[6] = Table 3 study, foliar spray 300 mg/l (34.1 g/acre)
[7] = Table 3 study, foliar spray 1000 mg/l (113.7 g/acre)
[8] = Table 3 study, foliar spray 1000 mg/l (113.7 g/acre), before chilling
[9] = Table 4 study, foliar spray 30 mg/l (3.4 g/acre)
[10] = Table 4 study, foliar spray 100 mg/l (11.4 g/acre)
[11] = Table 4 study, foliar spray 300 mg/l (34.1 g/acre)
[12] = Table 4 study, foliar spray 1000 mg/l (113.7 g/acre)
[13] = Table 4 study, foliar spray 1000 mg/l (113.7 g/acre), before chilling

With `CC1=C(C)[C@](O)(/C=C/C(C)=C\C(=O)O)C(C)(C)CC1=O` [3′-methyl-(S)-ABA, (2Z,4E)-5-((S)-1-hydroxy-2,3,6,6-tetramethyl-4-oxocyclohex-2-en-1-yl)-3-methylpenta-2,4-dienoic acid] the “Mitigating chilling damage compared with S-ABA” value ([1]; 100 ppm foliar spray, chilling at 4° C.) was “more effective than S-ABA”, the “New Growth Rating” value [1] was 2 and the “Percent Leaf Area Affected” value [1] was 16.67%. The “Percent of non-wilted plans on days after drench treatment and drought initiation, Day 8” value (“Percent of non-wilted plans on days … Day 8” below) ([2]; 0.3 mg/plant drench) was 100%, the “Percent of non-wilted plans on days after drench treatment and drought initiation, Day 10” value (shortened to “Percent of non-wilted plans on days … Day 10”) ([2]; 0.3 mg/plant drench) was 100% and the “Percent of non-wilted plans on days after drench treatment and drought initiation, Day 12” value (from here on “Percent of non-wilted plans on days … Day 12”) ([2]; 0.3 mg/plant drench) was 83%. The “Percent of non-wilted plans on days after drench treatment and drought initiation, Day 14” value (“Percent of non-wilted plans on days … Day 14” for short) ([2]; 0.3 mg/plant drench) was 33%, the “Percent of non-wilted plans on days after drench treatment and drought initiation, Day 16” value (“Percent of non-wilted plans on days … Day 16” for short) ([2]; 0.3 mg/plant drench) was 0% and the “Percent of non-wilted plans on days after drench treatment and drought initiation, Day 18” value (“Percent of non-wilted plans on days … Day 18” for short) ([2]; 0.3 mg/plant drench) was 0%. For the same molecule, the “Percent of plants recovered 3 days after re-watering” value (“Percent of plants recovered 3 days” for short) ([2]; 0.3 mg/plant drench) was 0%, the “Percent of non-wilted plans on days … Day 8” value ([2]; 1 mg/plant drench) was 100% and the “Percent of non-wilted plans on days … Day 10” value ([2]; 1 mg/plant drench) was 100%. For the same molecule, the “Percent of non-wilted plans on days … Day 12” value ([2]; 1 mg/plant drench) was 100%, the “Percent of non-wilted plans on days … Day 14” value ([2]; 1 mg/plant drench) was 83% and the “Percent of non-wilted plans on days … Day 16” value ([2]; 1 mg/plant drench) was 67%. The “Percent of non-wilted plans on days … Day 18” value ([2]; 1 mg/plant drench) was 0%, the “Percent of plants recovered 3 days” value ([2]; 1 mg/plant drench) was 33% and the “Percent of non-wilted plans on days … Day 8” value ([2]; 3 mg/plant drench) was 100%. The “Percent of non-wilted plans on days … Day 10” value ([2]; 3 mg/plant drench) was 100%, the “Percent of non-wilted plans on days … Day 12” value ([2]; 3 mg/plant drench) was 100% and the “Percent of non-wilted plans on days … Day 14” value ([2]; 3 mg/plant drench) was 100%. The “Percent of non-wilted plans on days … Day 16” value ([2]; 3 mg/plant drench) was 83%, the “Percent of non-wilted plans on days … Day 18” value ([2]; 3 mg/plant drench) was 0% and the “Percent of plants recovered 3 days” value ([2]; 3 mg/plant drench) was 83%. For the same molecule, the “Percent of plants recovered 3 days” value ([2]; 3 mg/plant drench, listed as 3′-methyl-(S)-abscisic acid) was 83%, the “Drought tolerance compared to the untreated control or the highest amount (3.0 mg) of S-ABA” value ([2]; lowest amount (0.3 mg)) was “superior drought tolerance” and the “Maintenance of growth under cold (10° C.) conditions” value (shortened to “Maintenance of growth under cold”) [3] was “maintained growth”. For the same molecule, the “Growth Rate, Greenhouse 7-9 d post spray” value [3, 4] was 2.650 cm/day, the “Growth Rate, Greenhouse 0-2 d post spray” value ([3]; Table 3 study, foliar spray 30 mg/l (3.4 g/acre), before chilling) was 3.725 cm/day and the “Growth Rate, Growth Chamber 10° C. 2-7 d post spray” value [3, 4] was 1.092 cm/day. The “Growth Rate, Greenhouse 7-9 d post spray” value [3, 5] was 2.795 cm/day, the “Growth Rate, Greenhouse 0-2 d post spray” value ([3]; Table 3 study, foliar spray 100 mg/l (11.4 g/acre), before chilling) was 4.290 cm/day and the “Growth Rate, Growth Chamber 10° C. 2-7 d post spray” value [3, 5] was 1.084 cm/day. For the same molecule, the “Growth Rate, Greenhouse 7-9 d post spray” value [3, 6] was 3.565 cm/day, the “Growth Rate, Greenhouse 0-2 d post spray” value ([3]; Table 3 study, foliar spray 300 mg/l (34.1 g/acre), before chilling) was 3.645 cm/day and the “Growth Rate, Growth Chamber 10° C. 2-7 d post spray” value [3, 6] was 0.990 cm/day. The “Growth Rate, Greenhouse 7-9 d post spray” value [3, 7] was 2.945 cm/day, the “Growth Rate, Greenhouse 0-2 d post spray” value [3, 8] was 3.615 cm/day and the “Growth Rate, Growth Chamber 10° C. 2-7 d post spray” value [3, 7] was 1.160 cm/day. For the same molecule, the “Plant growth initially following spraying” value ([3]; before chilling) was “initially suppressed”, the Leaf area [3] was “increased” and the “Effectiveness relative to S-ABA when applied to crop plants to mitigate drought and chilling stress” value (crop plants) was “from about two to about ten times as effective as S-ABA”.

In the case of `C#CCC1=C(C)[C@](O)(/C=C/C(C)=C\C(=O)O)C(C)(C)CC1=O` [3′-propargyl-(S)-ABA, (2Z,4E)-5-((S)-1-hydroxy-2,6,6-trimethyl-4-oxo-3-(prop-2-yn-1-yl)cyclohex-2-en-1-yl)-3-methylpenta-2,4-dienoic acid], the “Growth during stress recovery following cold” value [3] is reported as “did aid growth during stress recovery”, the “Maintenance of growth under cold” value [3] is reported as “did not maintain growth under cold stress” and the “Growth Rate, Greenhouse 7-9 d post spray” value [3, 9] is reported as 1.978 cm/day. For the same molecule, the “Growth Rate, Greenhouse 0-2 d post spray” value ([3]; Table 4 study, foliar spray 30 mg/l (3.4 g/acre), before chilling) was 3.239 cm/day, the “Growth Rate, Growth Chamber 10° C. 2-7 d post spray” value [3, 9] was 1.258 cm/day and the “Growth Rate, Greenhouse 7-9 d post spray” value [3, 10] was 2.489 cm/day. The “Growth Rate, Greenhouse 0-2 d post spray” value ([3]; Table 4 study, foliar spray 100 mg/l (11.4 g/acre), before chilling) was 2.294 cm/day, the “Growth Rate, Growth Chamber 10° C. 2-7 d post spray” value [3, 10] was 1.173 cm/day and the “Growth Rate, Greenhouse 7-9 d post spray” value [3, 11] was 2.500 cm/day. For the same molecule, the “Growth Rate, Greenhouse 0-2 d post spray” value ([3]; Table 4 study, foliar spray 300 mg/l (34.1 g/acre), before chilling) was 2.544 cm/day, the “Growth Rate, Growth Chamber 10° C. 2-7 d post spray” value [3, 11] was 1.033 cm/day and the “Growth Rate, Greenhouse 7-9 d post spray” value [3, 12] was 2.300 cm/day. For the same molecule, the “Growth Rate, Greenhouse 0-2 d post spray” value [3, 13] was 2.172 cm/day and the “Growth Rate, Growth Chamber 10° C. 2-7 d post spray” value [3, 12] was 0.787 cm/day.

With `CC1=CC(=O)CC(C)(C)[C@@]1(O)/C=C/C(C)=C/C(=O)O` [S-ABA, (S)-abscisic acid] the “New Growth Rating” value [1] was 1, the “Percent Leaf Area Affected” value [1] was 33.33% and the “Percent of non-wilted plans on days … Day 8” value ([2]; 0.3 mg/plant drench) was 100%. The “Percent of non-wilted plans on days … Day 10” value ([2]; 0.3 mg/plant drench) was 100%, the “Percent of non-wilted plans on days … Day 12” value ([2]; 0.3 mg/plant drench) was 17% and the “Percent of non-wilted plans on days … Day 14” value ([2]; 0.3 mg/plant drench) was 0%. The “Percent of non-wilted plans on days … Day 16” value ([2]; 0.3 mg/plant drench) was 0%, the “Percent of non-wilted plans on days … Day 18” value ([2]; 0.3 mg/plant drench) was 0% and the “Percent of plants recovered 3 days” value ([2]; 0.3 mg/plant drench) was 0%. The “Percent of non-wilted plans on days … Day 8” value ([2]; 1 mg/plant drench) was 100%, the “Percent of non-wilted plans on days … Day 10” value ([2]; 1 mg/plant drench) was 100% and the “Percent of non-wilted plans on days … Day 12” value ([2]; 1 mg/plant drench) was 50%. The “Percent of non-wilted plans on days … Day 14” value ([2]; 1 mg/plant drench) was 0%, the “Percent of non-wilted plans on days … Day 16” value ([2]; 1 mg/plant drench) was 0% and the “Percent of non-wilted plans on days … Day 18” value ([2]; 1 mg/plant drench) was 0%. For the same molecule, the “Percent of plants recovered 3 days” value ([2]; 1 mg/plant drench) was 0%, the “Percent of non-wilted plans on days … Day 8” value ([2]; 3 mg/plant drench) was 100% and the “Percent of non-wilted plans on days … Day 10” value ([2]; 3 mg/plant drench) was 100%. The “Percent of non-wilted plans on days … Day 12” value ([2]; 3 mg/plant drench) was 67%, the “Percent of non-wilted plans on days … Day 14” value ([2]; 3 mg/plant drench) was 0% and the “Percent of non-wilted plans on days … Day 16” value ([2]; 3 mg/plant drench) was 0%. For the same molecule, the “Percent of non-wilted plans on days … Day 18” value ([2]; 3 mg/plant drench) was 0%, the “Percent of plants recovered 3 days” value ([2]; 3 mg/plant drench) was 0% and the “Plants recovered once they were watered” value ([2]; all S-ABA doses (0.3, 1.0, 3.0 mg/plant)) was “none”. The “Growth during stress recovery following cold” value [3] was “did not aid recovery growth”, the “Maintenance of growth under cold” value [3] was “did not maintain growth” and the “Growth Rate, Greenhouse 7-9 d post spray” value [3, 7] was 3.270 cm/day. For the same molecule, the “Growth Rate, Greenhouse 0-2 d post spray” value [3, 8] was 4.315 cm/day, the “Growth Rate, Growth Chamber 10° C. 2-7 d post spray” value [3, 7] was 0.766 cm/day and the “Growth Rate, Greenhouse 7-9 d post spray” value [3, 12] was 2.161 cm/day. The “Growth Rate, Greenhouse 0-2 d post spray” value [3, 13] was 3.156 cm/day, the “Growth Rate, Growth Chamber 10° C. 2-7 d post spray” value [3, 12] was 1.249 cm/day and the Leaf area [3] was “increased”.
